Consider two molecules from patent publication EP4696306A1, “ADENOSINE TRIPHOSPHATE SECRETION INHIBITOR, HEPATIC STELLATE CELL ACTIVATION INHIBITOR, HEPATIC STELLATE CELL DEACTIVATOR, HEPATIC FIBROSIS THERAPEUTIC AGENT, NON-ALCOHOLIC STEATOHEPATITIS THERAPEUTIC AGENT, PSORIASIS THERAPEUTIC AGENT, AND USE OF COMPOUND FOR PRODUCING ADENOSINE TRIPHOSPHATE …” (KURUME UNIVERSITY, priority 2023, dated 2024).

Molecules are shown by their SMILES.

The subject of assay [1] is Thioacetamide-induced hepatic fibrosis. Briefly: Thioacetamide-induced hepatic fibrosis in mice. The class given is in vivo. On the procedure: Wild-type mice, […] (manufactured by Charles River Japan), were housed on a 12-hour light/dark cycle and fed a standard solid diet (5.4% fat, CRF-1, manufactured by Oriental Yeast Co., Ltd.) ad libitum. Thioacetamide (TAA, manufactured by FUJIFILM Wako Pure Chemical Corporation) was dissolved in physiological saline at 0.9% w/v. Eight-week-old mice were randomly assigned to three groups and continuously treated for 9 weeks according to the following scheme. At Week 9, all mice were euthanized 1 hour after administration of physiological saline or IMG.
Normal control group (N = 6): Physiological saline was intraperitoneally administered to mice three times per week. Eight hours after each administration, a vehicle was orally administered to the mice.
TAA group (N = 6): TAA(50 mg/kg, intraperitoneal) was administered to mice. Eight hours thereafter, physiological saline was orally administered to the mice. This treatment was performed three times per week for a total of 9 weeks.
TAA + IMG group (N = 6): During the first week, physiological saline was orally administered to mice. Thereafter, imeglimin (IMG) at 200 mg/kg was orally administered three times per week for 8 weeks. The administration of IMG was performed 8 hours after intraperitoneal administration of TAA (50 mg/kg).
For immunohistochemical analysis, liver samples were fixed in 4% paraformaldehyde, embedded in paraffin, and then sectioned. The sections were stained with HE or PSR. In addition, the paraffin-embedded sections were subjected to immunostaining using an α-SMA monoclonal antibody (1:500, catalog No. A5228, manufactured by Sigma-Aldrich) and an F4/80 monoclonal antibody (1:200, catalog No. MCA497GA, manufactured by AbD Serotec). The cell specimens were observed using a microscope (BZ-X700 series, manufactured by Keyence) or a confocal laser microscope (FV1000, manufactured by Olympus Corporation). The number of F4/80-positive cells was counted in four high-power fields per section. The α-SMA-positive area and the PSR-positive area were quantified using the image analysis software Fiji-ImageJ (1.54f).
A histological score was determined by a blinded investigator using the NAFLD histological scoring system of the Nonalcoholic Steatohepatitis Clinical Research Network. The total NAFLD activity score (NAS) was calculated from the total of the individual scores for steatosis ([…]), lobular inflammation (F4/80), and hepatocyte ballooning. The range of each parameter was 0 to 2 (ballooning) or 3 (the other two scores), where 0 indicates normal and 2 or 3 indicates severe. Staging of fibrosis was based on the NASH fibrosis stages, and a fibrosis stage ranging from 0 to 4 was determined according to Reference H (David E. Kleiner et al., 2005, Design and validation of a histological scoring system for nonalcoholic fatty liver disease, Hepatology, 41, 1313-1321).
All results are expressed as the mean ± standard error of the mean (S.E.M.). Statistical analyses were performed using GraphPad Prism 7.0 (GraphPad Software). Significance upon comparison between two groups was evaluated by an unpaired two-tailed Student's t-test. An unpaired two-tailed Student's t-test was used. Statistical significance among three or more groups was determined by two-way analysis of variance (ANOVA) with Tukey's or Dunnett's post hoc test. Coloc2 was used to perform image analysis, automatic thresholding, and pixel intensity correlation for statistical processing. Statistical significance was assumed when the P value was < 0.05.
In accordance with Example 15, immunostaining of α-SMA in liver sections and observation by fluorescence microscopy were performed for the normal control group, the TAA group, and the TAA + IMG group, and for a TAA + Clo group, which was treated in the same manner as the TAA + IMG group except that clodronate, instead of imeglimin, was administered at 30 mg/kg by blending it in the drinking water from 1 week after the start of TAA administration. […]

The subject of assay [2] is human epidermal keratinocytes. Briefly: Imiquimod-induced ATP secretion in keratinocytes. It is filed as cell-based. The note with it: 18 hours incubation, imiquimod 15 minutes, N = 8. On the procedure:
In the same manner as in Example 1, keratinocytes were cultured at 2.5×10^4 cells/well in a 24-well plate at 37°C in 5% CO2 for 4 days. The medium was replaced with HBSS (manufactured by Gibco) supplemented with 1 µM or 10 µM imeglimin, and incubation was performed at 37°C in 5% CO2 for 18 hours. Thereafter, imiquimod was added thereto at 1 µg/ml or 0.5 µg/ml, and incubation was performed for 15 minutes, followed by collection of 200 µl of the supernatant. The supernatant was immediately treated on a heat block at 95°C for 10 minutes, and ATP in the supernatant was quantified using a ATP Assay Kit - Luminescence (manufactured by Dojindo) (N = 8).

Assay [3] has as its system imiquimod-induced psoriasis relapse. Description: Imiquimod-induced psoriasis relapse model. It is filed as in vivo, mice. To be noted: imeglimin 40 mg/kg orally, alternate days Day 8 to 22, then daily from Day 23; compared to IMQ. The method, then: To the left auricle of each mouse, 62.5 mg of 5% imiquimod cream (Beselna Cream 5%) was applied once daily a total of seven times (Days 1 to 7) in accordance with Example 19 to induce imiquimod-induced psoriasis. Thereafter, the imiquimod treatment was interrupted, and imeglimin (40 mg/kg) was orally administered on alternate days for 2 weeks (Day 8 to 22) (IMG). Mice without administration of imeglimin were designated IMQ. On Day 23, the imiquimod treatment was resumed, and 62.5 mg of 5% imiquimod cream (Beselna Cream 5%) was applied once daily a total of […]. In parallel, imeglimin (40 mg/kg) was orally administered daily to IMG.

Another assay deals with ATP-loaded vesicles. Briefly: MANT-ATP accumulation in ATP-loaded granules of keratinocytes (confocal microscopy). It is filed as cell-based, human. To be noted: 10 µM imeglimin, 19 hours; 0.3 mM MANT-ATP. The method, then:
Keratinocytes were cultured in the same manner as in Example 8. Keratinocytes were cultured at 4 × 10^4 cells/ml in a glass-bottom dish (35 mm, manufactured by Matsunami Glass Ind., Ltd.) at 37°C in 5% CO2 for 2 days. The culture medium was then replaced with a medium supplemented with MANT-ATP (manufactured by Invitrogen) at a final concentration of 0.3 mM, and further incubation was performed for 4.5 hours. Subsequently, imeglimin was added thereto to a final concentration of 10 µM, and further incubation was performed at 37°C in 5% CO2 for 19 hours. Thereafter, the cells were washed twice with HBSS (manufactured by Gibco) and observed using an inverted confocal laser microscope (FV-1000 OSR, manufactured by Olympus Corporation).

[4] abbreviates: imeglimin 200 mg/kg orally three times per week for 8 weeks.

In the case of `O=P(O)(O)C(Cl)(Cl)P(=O)(O)O` [clodronate], the “α-SMA-positive reaction in liver, increase by TAA” value in assay [1] (clodronate 30 mg/kg in the drinking water, immunostaining) is “markedly suppressed”. Further, the α-SMA-positive area fraction in assay [1] (clodronate 30 mg/kg in the drinking water, normal control 0.14 ± 0.01, TAA group 2.79 ± 0.33, four measurements per group) is given as 0.71 ± 0.10.

On to `C[C@H]1N=C(N(C)C)N=C(N)N1` [imeglimin], for which, in assay [1] (imeglimin 200 mg/kg orally), the “α-SMA in liver sections (immunostaining and fluorescence microscopy)” value is given as “effect similar to that of clodronate”; the “α-SMA-positive reaction by Western blotting of liver tissue, increase due to TAA” value is recorded as “markedly suppressed”. Moreover, in assay [1] (setting [4]), the “fibrosis score, increase by TAA” value is on record as “suppressed”; the “liver histology (HE staining)” value is “reduced destruction of the lobular structure, hepatocyte ballooning, and inflammatory cell infiltration”; the “positive reaction of F4/80-positive macrophages, increase by TAA” value is “strongly suppressed”; the “α-SMA-positive reaction (activation of hepatic stellate cells), increase by TAA” value is recorded as “strongly suppressed”. In addition, the “PSR staining-positive area (collagen fibers)” value in assay [1] (imeglimin 200 mg/kg orally three times per week for 8 weeks, versus TAA group) is given as “significantly reduced”. Moreover, the “ATP secretion promoted by imiquimod” value in assay [2] (1 µM imeglimin) is “strongly inhibited”. The “ATP secretion promoted by imiquimod” value in assay [2] (10 µM imeglimin) is reported as “strongly inhibited”. Further, the “psoriatic symptoms (auricular thickness) after resumed imiquimod treatment” value in assay [3] is reported as “markedly reduced”. In the assay on ATP-loaded vesicles, the “accumulation of MANT-ATP in granules” value is on record as “this accumulation was absent”.
